Test results published in PubChem BioAssay (NCI).
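96-well plates; 48 h exposure; 5 concentrations. Endpoints by linear interpolation between flanking doses. Not reached: highest tested concentration assigned. GI50 = concentration required for 50% inhibition of growth. TGI denotes the concentration required for complete inhibition of growth.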

Tests used:
Assay in all cases: DTP human tumour cell line panel, 48 h
HCT-116 colon = test system: HCT-116 colon
SF-539 CNS = test system: SF-539 CNS
CAKI-1 renal = test system: CAKI-1 renal
BT-549 breast = test system: BT-549 breast
SK-MEL-5 melanoma = test system: SK-MEL-5 melanoma
HOP-62 NSCLC = test system: HOP-62 NSCLC
MALME-3M melanoma = test system: MALME-3M melanoma
EKVX NSCLC = test system: EKVX NSCLC
T-47D breast = test system: T-47D breast
KM12 colon = test system: KM12 colon
MDA-MB-435 = test system: MDA-MB-435
786-0 renal = test system: 786-0 renal
OVCAR-5 ovarian = test system: OVCAR-5 ovarian
IGROV1 ovarian = test system: IGROV1 ovarian
NCI-H226 lung = test system: NCI-H226 lung
NCI-H460 lung = test system: NCI-H460 lung
SF-268 CNS = test system: SF-268 CNS
ACHN renal = test system: ACHN renal
MDA-MB-231 breast = test system: MDA-MB-231 breast
DU-145 prostate = test system: DU-145 prostate
SN12C renal = test system: SN12C renal
NCI-H522 lung = test system: NCI-H522 lung
MCF7 breast = test system: MCF7 breast
U251 CNS = test system: U251 CNS
PC-3 prostate = test system: PC-3 prostate
UACC-257 melanoma = test system: UACC-257 melanoma
LOX IMVI melanoma = test system: LOX IMVI melanoma
NCI/ADR-RES ovarian = test system: NCI/ADR-RES ovarian
UACC-62 melanoma = test system: UACC-62 melanoma
RXF 393 renal = test system: RXF 393 renal
SK-MEL-28 melanoma = test system: SK-MEL-28 melanoma
MOLT-4 leukemia = test system: MOLT-4 leukemia
TK-10 renal = test system: TK-10 renal
HS 578T breast = test system: HS 578T breast
UO-31 renal = test system: UO-31 renal
HOP-92 NSCLC = test system: HOP-92 NSCLC
SF-295 CNS = test system: SF-295 CNS
OVCAR-4 ovarian = test system: OVCAR-4 ovarian
HCT-15 colon = test system: HCT-15 colon
SK-OV-3 ovarian = test system: SK-OV-3 ovarian
M14 melanoma = test system: M14 melanoma
OVCAR-8 ovarian = test system: OVCAR-8 ovarian
A549 NSCLC = test system: A549 NSCLC
HT29 colon = test system: HT29 colon
COLO 205 colon = test system: COLO 205 colon
NCI-H23 lung = test system: NCI-H23 lung
RPMI-8226 leukemia = test system: RPMI-8226 leukemia
OVCAR-3 ovarian = test system: OVCAR-3 ovarian
HL-60(TB) leukemia = test system: HL-60(TB) leukemia
SNB-19 CNS = test system: SNB-19 CNS
CCRF-CEM leukemia = test system: CCRF-CEM leukemia
SK-MEL-2 melanoma = test system: SK-MEL-2 melanoma
SW-620 colon = test system: SW-620 colon

`COc1ccc(Cn2c(Cl)c(/C=C3/C(=O)Nc4ccccc43)c3cc(OC)c(C)cc32)cc1` showed a GI50 (HCT-116 colon) of 3.77 µM, a TGI (HCT-116 colon) of 39.1 µM and a GI50 (SF-539 CNS) of 4.15 µM. The TGI (SF-539 CNS) was > 100 µM, the GI50 (CAKI-1 renal) was 5.81 µM and the TGI (CAKI-1 renal) was > 100 µM. The GI50 (BT-549 breast) was 17.2 µM, the TGI (BT-549 breast) was > 100 µM and the GI50 (SK-MEL-5 melanoma) was 2.44 µM. The TGI (SK-MEL-5 melanoma) was 16 µM, the GI50 (HOP-62 NSCLC) was 5.67 µM and the TGI (HOP-62 NSCLC) was > 100 µM. For the same compound, the GI50 (MALME-3M melanoma) was 9.44 µM, the TGI (MALME-3M melanoma) was > 100 µM and the GI50 (EKVX NSCLC) was 45.5 µM. The TGI (EKVX NSCLC) was > 100 µM, the GI50 (T-47D breast) was 25 µM and the TGI (T-47D breast) was > 100 µM. It also gave a GI50 (KM12 colon) of 3.99 µM, a TGI (KM12 colon) of 23.8 µM and a GI50 (MDA-MB-435) of 2.06 µM. For the same compound, the TGI (MDA-MB-435) was 6.08 µM, the GI50 (786-0 renal) was 3.92 µM and the TGI (786-0 renal) was 31.7 µM. For the same compound, the GI50 (OVCAR-5 ovarian) was 6.06 µM, the TGI (OVCAR-5 ovarian) was > 100 µM and the GI50 (IGROV1 ovarian) was 13.3 µM. The TGI (IGROV1 ovarian) was > 100 µM, the GI50 (NCI-H226 lung) was 2.92 µM and the TGI (NCI-H226 lung) was 8.32 µM. For the same compound, the GI50 (NCI-H460 lung) was 5.03 µM, the TGI (NCI-H460 lung) was > 100 µM and the GI50 (SF-268 CNS) was 8.94 µM. The TGI (SF-268 CNS) was > 100 µM, the GI50 (ACHN renal) was 8.11 µM and the TGI (ACHN renal) was > 100 µM. For the same compound, the GI50 (MDA-MB-231 breast) was 4.22 µM, the TGI (MDA-MB-231 breast) was > 100 µM and the GI50 (DU-145 prostate) was 18.1 µM. The TGI (DU-145 prostate) was > 100 µM, the GI50 (SN12C renal) was 8.17 µM and the TGI (SN12C renal) was > 100 µM. The GI50 (NCI-H522 lung) was 4.77 µM, the TGI (NCI-H522 lung) was > 100 µM and the GI50 (MCF7 breast) was 5.87 µM. The TGI (MCF7 breast) was > 100 µM, the GI50 (U251 CNS) was 6.05 µM and the TGI (U251 CNS) was > 100 µM. The GI50 (PC-3 prostate) was 6.22 µM, the TGI (PC-3 prostate) was > 100 µM and the GI50 (UACC-257 melanoma) was 55.3 µM. For the same compound, the TGI (UACC-257 melanoma) was > 100 µM, the GI50 (LOX IMVI melanoma) was 14.3 µM and the TGI (LOX IMVI melanoma) was > 100 µM. For the same compound, the GI50 (NCI/ADR-RES ovarian) was 2 µM, the TGI (NCI/ADR-RES ovarian) was 4.77 µM and the GI50 (UACC-62 melanoma) was 2.17 µM. The TGI (UACC-62 melanoma) was 18.7 µM, the GI50 (RXF 393 renal) was 4.06 µM and the TGI (RXF 393 renal) was > 100 µM. For the same compound, the GI50 (SK-MEL-28 melanoma) was 4.03 µM, the TGI (SK-MEL-28 melanoma) was > 100 µM and the GI50 (MOLT-4 leukemia) was 5.55 µM. For the same compound, the TGI (MOLT-4 leukemia) was > 100 µM, the GI50 (TK-10 renal) was 13.3 µM and the TGI (TK-10 renal) was > 100 µM. For the same compound, the GI50 (HS 578T breast) was 2.32 µM, the TGI (HS 578T breast) was > 100 µM and the GI50 (UO-31 renal) was 5.82 µM. For the same compound, the TGI (UO-31 renal) was > 100 µM, the GI50 (HOP-92 NSCLC) was 53.8 µM and the TGI (HOP-92 NSCLC) was > 100 µM. For the same compound, the GI50 (SF-295 CNS) was 2.92 µM, the TGI (SF-295 CNS) was 24.2 µM and the GI50 (OVCAR-4 ovarian) was 4.01 µM. The TGI (OVCAR-4 ovarian) was > 100 µM, the GI50 (HCT-15 colon) was 4.15 µM and the TGI (HCT-15 colon) was > 100 µM. For the same compound, the GI50 (SK-OV-3 ovarian) was 3.56 µM, the TGI (SK-OV-3 ovarian) was > 100 µM and the GI50 (M14 melanoma) was 3.27 µM. For the same compound, the TGI (M14 melanoma) was 15 µM, the GI50 (OVCAR-8 ovarian) was 5.96 µM and the TGI (OVCAR-8 ovarian) was > 100 µM. For the same compound, the GI50 (A549 NSCLC) was 7.86 µM, the TGI (A549 NSCLC) was > 100 µM and the GI50 (HT29 colon) was 4.1 µM. The TGI (HT29 colon) was > 100 µM, the GI50 (COLO 205 colon) was 2.33 µM and the TGI (COLO 205 colon) was 5.52 µM. For the same compound, the GI50 (NCI-H23 lung) was 4.78 µM, the TGI (NCI-H23 lung) was > 100 µM and the GI50 (RPMI-8226 leukemia) was 4.26 µM. The TGI (RPMI-8226 leukemia) was 79 µM, the GI50 (OVCAR-3 ovarian) was 2.3 µM and the TGI (OVCAR-3 ovarian) was 5.37 µM. The GI50 (HL-60(TB) leukemia) was 4.05 µM, the TGI (HL-60(TB) leukemia) was > 100 µM and the GI50 (SNB-19 CNS) was 4.09 µM. For the same compound, the TGI (SNB-19 CNS) was > 100 µM, the GI50 (CCRF-CEM leukemia) was 4.94 µM and the TGI (CCRF-CEM leukemia) was > 100 µM. For the same compound, the GI50 (SK-MEL-2 melanoma) was 19.8 µM, the TGI (SK-MEL-2 melanoma) was > 100 µM and the GI50 (SW-620 colon) was 3.46 µM. For the same compound, the TGI (SW-620 colon) was > 100 µM.
